Laboratory results published in patent US20260137790A1, “MIXED VASOPRESSIN RECEPTOR AGONIST-ANTAGONIST FOR MODULATING MEAN ARTERIAL PRESSURE” (FERRING B.V., priority 2022, published 2026).
Like-named read-outs stand apart in the source and are kept apart here. Starred links: 1 amine or outer side, 2 acyl side, 3 side chain; linkers in the order of their positions; H or OH if unused. Positions of bridges follow the written chain, without caps; N, C: chain ends. Non-standard residues stand in square brackets, D forms with d. Residues, ends and D or L forms follow the SMILES beside them. Groups on a side chain read outwards from the residue. Chains are numbered I, II in the order given. *: point of attachment. X1 = CC(=O)NCCCC[C@H](NC(=O)CC[C@H](N)C(N)=O)C(=O)*; isoGln = NC(=O)[C@H](CCC(=O)[*:2])N[*:1]; εLys = N[C@@H](CCCCN[*:1])C(=O)[*:2]; Dab = NCC[C@H](N)C(=O)O; PhAc = O=C(Cc1ccccc1)*

How the values were obtained:
[1] = SC (bolus) injection of high/low buffer compositions in rats: bioavailability, M1 formation; assay type: in vivo, rat; conditions: for bioavailability: rat, in vivo, sc, bioavailability of Compound 1, rats
[2] = Metabolite M1 formation in healthy rats after IV bolus and SC (bolus) injection; assay type: in vivo; conditions: rat
Description: A similar study in healthy rats was used to evaluate the differences between metabolite formation of Compound 1 after IV bolus and SC (bolus) injection.

[3] = human, in vivo; for AUC: M1 AUC; for Tmax: M1 tmax
Description: (§1) The trial comprised two treatment periods, treatment Period 1 and treatment Period 2 (see FIG. 1).
(§2) The study was conducted in two periods where the treatment in Period 1 was administered as an intravenous infusion, and the treatment in Period 2 was administered as subcutaneous injections. The trial comprised 5 ascending dose panels, each dose panel comprising 8 healthy subjects (6 active, 2 placebo). A new cohort of subjects was used for each dose panel.
(§3) If no safety concerns arose, as judged by the Investigator, the remaining subjects in that dose group were randomized and treated according to the randomization and protocol in a staggered dosing manner.
(§4) Treatment period 2: After a resting period of 2-18 days each subject received a once daily subcutaneous dose for 5 days of the same treatment as in Period 1. The dose was selected to prevent the exposure to exceed the intravenous exposure. […] A SRC evaluated the safety and tolerability of the compound after the completion of all subjects in the dose group.
(§5) The continuation of the same subjects from intravenous to subcutaneous administration was selected to get an as reliable as possible estimate of the bioavailability (F) in the small groups outlined.
(§6) The intravenous dose to the first dose panel was the lowest dose giving a clear signal of pharmacological activity in the preceding trial. The administration was performed by using a piston-driven syringe auto-infusion pump. The administered volume was recorded for each subject.
(§7) In Period 2, subjects received a once-daily subcutaneous injection for 5 days of the same treatment as in Period 1 at different locations on the abdomen (Table 5). The subcutaneous doses were selected based on data from a previous trial.

[4] = in vivo
Description: as §1, §2, §3, §4, §5, §6, §7

[5] = test system: adult male cynomolgus monkeys; assay: Telemetry MAP in healthy monkeys, Compound 1 versus terlipressin; assay type: in vivo, cynomolgus monkey; conditions: monkey
Description: The in-life portion of the study was performed over multiple dosing sessions using six non-naive adult male cynomolgus monkeys. Animals were previously (3-4 weeks before study start) instrumented with indwelling pressure telemetry devices and trained to be restrained in chairs. Animals had access to food and drinking water ad libitum.
Stock solutions were diluted in saline on the day of administration. Animals with indwelling pressure telemetry devices were trained to be restrained in chairs for 8-h periods.
On the day of administration, animals were restrained, and telemetric measurements were collected continuously starting ≥2 h before administration. Baseline values of arterial pressure (diastolic and systolic), heart rate, and body temperature were obtained. […].
The data reported herein were collected over 19 dosing sessions of four animals each, using a total of six monkeys. Animals were repeat dosed in a crossover design with at least one animal receiving vehicle for each round; the animal receiving vehicle was varied between rounds. A 48- to 72-h washout period was used between dosing sessions. Animals were observed by camera for ˜1 h before dosing (covering the baseline period) and up to 3 h after dosing.

[6] = test system: methionine/choline-deficient (MCD) diet rats; assay: Methionine/choline-deficient (MCD) diet rat model, MAP and portal pressure; conditions: for Δ MAP, mean / Δ PP, mean: 100 μg/kg IA

## CC[C@H](C)[C@@H]1NC(=O)[C@H](Cc2ccccc2)NC(=O)[C@@H](N)CSSC[C@@H](C(=O)N2CCC[C@H]2C(=O)N[C@@H](CCNC(=O)[C@@H](N)CCCCNC(=O)[C@H](CCCCNC(C)=O)NC(=O)CC[C@H](NC(=O)[C@H](CCCNC(=N)N)NC(=O)[C@@H]2CCCN2C(=O)[C@H](C)NC(=O)[C@H](CC(N)=O)NC(=O)[C@H](CCC(N)=O)NC(=O)[C@H](Cc2ccccc2)NC(=O)[C@@H](Cc2ccc(OC)cc2)NC(=O)Cc2ccccc2)C(N)=O)C(=O)NCC(N)=O)NC(=O)[C@H](CC(N)=O)NC(=O)[C@H](CCC(N)=O)NC1=O [Compound 1] (I: H-CFIQNCP[Dab]G-NH2 / II: PhAc-[dY](Me)FQNAPR[isoGln]K(Ac)[εLys]; disulfide I:1-I:6; amide I:8-II:C)
[1]; buffer about 10 mM
  bioavailability: ~13%
[1]; buffer about 100 mM
  bioavailability: ~37%

## CC[C@H](C)[C@@H]1NC(=O)[C@H](Cc2ccccc2)NC(=O)[C@@H](N)CSSC[C@@H](C(=O)N2CCC[C@H]2C(=O)N[C@@H](CCNC(=O)[C@@H](N)CCCCNC(=O)[C@H](CCCCNC(C)=O)NC(=O)CC[C@H](N)C(N)=O)C(=O)NCC(N)=O)NC(=O)[C@H](CC(N)=O)NC(=O)[C@H](CCC(N)=O)NC1=O [Compound M1] (H-CFIQNCP[Dab]([εLys-X1])G-NH2; disulfide 1-6)
[2]
  Compound 1 converted to M1: 80-90%
[1]; rats
  relative amount of M1 formed, more with 10 mM than with 100 mM buffer: at least 15%
[1]; rats, in some cases
  relative amount of M1 formed, less with high vs lower buffer concentration: about 50%
[3]; iv, 0.9 mg, M1 mean Cmax
  Cmax: 0.1 to 0.25 ng/mL
[3]; iv, M1 harmonic mean terminal half-life
  half-life: ~4 h
[3]; sc, 0.1 mg, geometric mean
  AUC: 2.51 ng·h/mL
[3]; sc, 0.1 mg, max
  AUC: 3.5 ng·h/mL
  Tmax: 2 h
[3]; sc, 0.1 mg, mean
  AUC: 2.6 ng·h/mL
  Tmax: 0.8 h
[3]; sc, 0.1 mg, min
  AUC: 1.71 ng·h/mL
  Tmax: 0.3 h
[3]; sc, 0.1 mg, M1 Cmax, geometric mean
  Cmax: 0.9 ng/mL
[3]; sc, 0.1 mg, M1 Cmax, max
  Cmax: 1.28 ng/mL
[3]; sc, 0.1 mg, M1 Cmax, mean
  Cmax: 0.93 ng/mL
[3]; sc, 0.1 mg, M1 Cmax, min
  Cmax: 0.7 ng/mL
[3]; sc, 0.1 mg, M1 t1/2, harmonic mean
  half-life: 1.5 h
[3]; sc, 0.1 mg, M1 t1/2, max
  half-life: 2.1 h
[3]; sc, 0.1 mg, M1 t1/2, mean
  half-life: 1.6 h
[3]; sc, 0.1 mg, M1 t1/2, min
  half-life: 1 h
[3]; sc, 0.1 mg, median
  Tmax: 0.5 h
[3]; sc, 0.3 mg, geometric mean
  AUC: 6.71 ng·h/mL
[3]; sc, 0.3 mg, max
  AUC: 10.2 ng·h/mL
  Tmax: 1.1 h
[3]; sc, 0.3 mg, mean
  AUC: 7.55 ng·h/mL
  Tmax: 0.8 h
[3]; sc, 0.3 mg, min
  AUC: 3.2 ng·h/mL
  Tmax: 0.5 h
[3]; sc, 0.3 mg, min, max (n 1)
  AUC: 11.3 ng·h/mL
[3]; sc, 0.3 mg, M1 Cmax, geometric mean
  Cmax: 1.63 ng/mL
[3]; sc, 0.3 mg, M1 Cmax, max
  Cmax: 2.93 ng/mL
[3]; sc, 0.3 mg, M1 Cmax, mean
  Cmax: 2.01 ng/mL
[3]; sc, 0.3 mg, M1 Cmax, min
  Cmax: 0.6 ng/mL
[3]; sc, 0.3 mg, M1 harmonic mean terminal half-life
  half-life: 1.5 to 2 h
[3]; sc, 0.3 mg, M1 t1/2, harmonic mean
  half-life: 1.9 h
[3]; sc, 0.3 mg, M1 t1/2, max
  half-life: 2.4 h
[3]; sc, 0.3 mg, M1 t1/2, mean
  half-life: 2 h
[3]; sc, 0.3 mg, M1 t1/2, min
  half-life: 1.5 h
[3]; sc, 0.3 mg, M1 t1/2, min, max (n 1)
  half-life: 2.1 h
[3]; sc, 0.3 mg
  Tmax: 0.5 to 1.5 h
[3]; sc, 0.3 mg, median
  Tmax: 1 h
[4]; human, iv
  M1 time of Cmax: approx. 5 hours
[4]; human, sc, 0.1 mg
  M1 AUC, geometric mean: 2.68 ng·h/mL
  M1 AUC, max: 3.10 ng·h/mL
  M1 AUC, mean: 2.70 ng·h/mL
  M1 AUC, min: 2.39; h*ng/mL
  M1 Cmax, geometric mean: 0.98 ng/mL
  M1 Cmax, max: 1.27 ng/mL
  M1 Cmax, mean: 1.01 ng/mL
  M1 Cmax, min: 0.74; ng/mL
  M1 t1/2, harmonic mean: 1.4 h
  M1 t1/2, max: 2.2 h
  M1 t1/2, mean: 1.6 h
  M1 t1/2, min: 0.8; h
  M1 tmax, min: 0.5; h
[4]; human, sc, 0.3 mg
  M1 Cmax, geometric mean: 1.76 ng/mL
  M1 Cmax, max: 3.62 ng/mL
  M1 Cmax, mean: 2.24 ng/mL
  M1 Cmax, min: 0.86; ng/mL
  M1 t1/2, mean: 2.1 h
  M1 tmax, mean: 1.5 h
  M1 tmax, median: 1.5 h
  M1 tmax, min: 1.0; h
[4]; iv
  formation of M1: 0-15%

## NCCCC[C@H](NC(=O)[C@@H]1CCCN1C(=O)[C@@H]1CSSC[C@H](NC(=O)CNC(=O)CNC(=O)CN)C(=O)N[C@@H](Cc2ccc(O)cc2)C(=O)N[C@@H](Cc2ccccc2)C(=O)N[C@@H](CCC(N)=O)C(=O)N[C@@H](CC(N)=O)C(=O)N1)C(=O)NCC(N)=O [Terlipressin] (H-GGGCYFQNCPKG-NH2; disulfide 4-9)
[5]; IV bolus 0.03 mg/kg
  average increase in MAP between 30 min and 5 h: 6.0 mmHg
  maximum MAP increase from baseline: 29.6±3.6 mmHg
[5]; IV bolus 0.09 mg/kg
  average increase in MAP between 30 min and 5 h: 5.8 mmHg
  maximum MAP increase from baseline: 29.9±6.2 mmHg
[5]; IV bolus 0.17 mg/kg
  average increase in MAP between 30 min and 5 h: 14.6 mmHg
  maximum MAP increase from baseline: 50.8±5.6 mmHg
[5]; IV bolus 0.34 mg/kg
  average increase in MAP between 30 min and 5 h: 14.7 mmHg
  maximum MAP increase from baseline: 41.2±7.5 mmHg
[5]; IV bolus, across groups
  time of maximum MAP increase: 5 to 30 min
[5]; IV bolus, all groups
  time by which Δ MAP was negligible: 150 min
[6]; 0 min
  Δ MAP, mean: 0.0 mmHg
  Δ PP, mean: 0.0 mmHg
[6]; 1 min
  Δ MAP, mean: 6.1 mmHg
  Δ PP, mean: −1.5 mmHg
[6]; 2 min
  Δ MAP, mean: 10.8 mmHg
  Δ PP, mean: −2.1 mmHg
[6]; 3 min
  Δ MAP, mean: 18.1 mmHg
  Δ PP, mean: −2.3 mmHg
[6]; 5 min
  Δ MAP, mean: 26.3 mmHg
  Δ PP, mean: −2.4 mmHg
[6]; 7 min
  Δ MAP, mean: 30.1 mmHg
  Δ PP, mean: −2.5 mmHg
[6]; 10 min
  Δ MAP, mean: 32.0 mmHg
  Δ PP, mean: −2.4 mmHg
[6]; 15 min
  Δ MAP, mean: 32.9 mmHg
  Δ PP, mean: −2.5 mmHg
[6]; 20 min
  Δ MAP, mean: 33.5 mmHg
  Δ PP, mean: −2.6 mmHg
[6]; 30 min
  Δ MAP, mean: 31.7 mmHg
  Δ PP, mean: −2.5 mmHg
[6]; 60 min
  Δ MAP, mean: 13.3 mmHg
  Δ PP, mean: −2.8 mmHg
[6]; 90 min
  Δ MAP, mean: 5.2 mmHg
  Δ PP, mean: −0.8 mmHg
[6]; 100 μg/kg intra-arterial
  highest observed absolute MAP: 116.6±4.1 mmHg
  maximum ΔMAP: 33.5±2.6 mmHg
  maximum ΔPP: −2.8±0.8 mmHg
